# Data as given in PMC12884720, “Gabpα‐Pparγ Complex Determines Glycolytic Capacity and Lactic Acid Homeostasis in Brown Fat” (Advanced Science, 2025).
# Residues, ends and D or L forms follow the SMILES beside them. *: point of attachment. FITC = O=C1OC2(c3ccc(O)cc3Oc3cc(O)ccc32)c2ccc(NC(=S)*)cc21
# Experiments:
# [1] = tested on: differentiated iBAT‐SVF cells; assay: Relative mRNA and protein levels in differentiated iBAT-SVF cells; type: cell-based, C57BL/6 mice; conditions: GPCBi 5 µM
# Experimental: Interscapular BAT‐SVF cells were obtained from eight‐week‐old male C57BL/6 mice. […] The tissue homogenates were filtered through a 70 µm cell strainer and centrifuged at 1000 rpm for 5 min. The cell pellet was resuspended in DMEM supplemented with 10% FBS (Sigma–Aldrich) and 1% penicillin/streptomycin (P/S) at 37 °C with 5% CO2. The next day, BAT‐SVF cells were immortalized with the SV40 large T antigen according to a published protocol.^[ [32] ^] […] After 48 h, the induction medium was replaced with a maintenance cocktail (5 µg mL^−1 insulin, 1 nM triiodo‐L‐thyronine, and 1 µM rosiglitazone) until 6 to 8 days after the induction of differentiation.
# Reverse transcription of cDNA was completed via the use of 1 µg of RNA with HiScript II Q RT SuperMix for real‐time quantitative PCR (qPCR) (Vazyme Biotech, Nanjing, China, Cat# R222) according to the provided protocols. qPCR was performed with a real‐time PCR system on a QuantStudio1 (Applied Biosystems) using Taq Pro Universal SYBR qPCR Master Mix (Vazyme Biotech., Nanjing, China, Cat# Q712‐02). Relative transcript levels were calculated via the comparative C T method; 36b4 was used as the internal control for cells, whereas Hprt was used as the internal control for tissues. The primer sequences are listed in Table S1 (Supporting Information). The mRNAs from the BAT of control and Gabpα ^Ucp1 KO mice were extracted and subjected to commercial RNA‐seq (BGI Genomics Co., Ltd.) for further DEG and KEGG pathway enrichment analysis. In detail, RNA quality was examined with Fragment (Agilent). High‐quality RNA (RIN > 8.0) was used to library construction. RNA‐seq was performed at BGI Genomics (China) using the Illumina NovaSeq 6000 platform. Clean reads were aligned to the mouse reference genome (GRCm39) using Bowtie2, and transcript quantification was performed with RSEM. […] The RNA‐seq data generated in this study have been deposited in the National Center for Biotechnology Information Sequence Read Archive database under accession code PRJNA1358056.
# Cells and tissues were lysed in RIPA lysis buffer (Beyotime, Shanghai, China, Cat# P0013B) containing a protease inhibitor cocktail (MedChem Express, NJ, USA, Cat# HY‐K0010) according to the manufacturer's protocol. Equal amounts of protein were separated on SDS‒PAGE gels and transferred to PVDF membranes (Millipore). The PVDF membranes were blocked in 5% skim milk for 1 h at room temperature and then incubated with primary antibody overnight at 4 °C. The membranes were washed three times with TBST and then incubated with HRP‐conjugated secondary antibodies for 1 h at room temperature. After washing three times, the Western blots were imaged via an enhanced chemiluminescence system.
# [2] = tested on: differentiated iBAT‐SVF cells; assay: Lactate levels in differentiated iBAT-SVF cells; type: cell-based, C57BL/6 mice; conditions: GPCBi 5 µM
# Experimental: Interscapular BAT‐SVF cells were obtained from eight‐week‐old male C57BL/6 mice. Briefly, BAT was excised, washed in PBS, minced, and digested at 37 °C for 40 min in Hanks solution containing type II collagenase (Sigma, Cat# C‐6885) and 4% bovine serum albumin (BSA). The tissue homogenates were filtered through a 70 µm cell strainer and centrifuged at 1000 rpm for 5 min. The cell pellet was resuspended in DMEM supplemented with 10% FBS (Sigma–Aldrich) and 1% penicillin/streptomycin (P/S) at 37 °C with 5% CO2. The next day, BAT‐SVF cells were immortalized with the SV40 large T antigen according to a published protocol.^[ [32] ^] For iBAT‐SVF cell differentiation, confluent SVF cells were induced to differentiate with medium containing 0.5 mM isobutylmethylxanthine (Sigma, Cat# I‐5879), 125 µM indomethacin (Sigma, Cat# I‐7378), 2 µg mL^−1 dexamethasone (Sigma, Cat# D‐1756), 5 µg mL^−1 insulin (Solarbio, Cat# I‐8040), 1 nM triiodo‐L‐thyronine (Sigma, Cat# T‐2877), and 1 µM rosiglitazone (Cayman, Cat# 71740‐100). After 48 h, the induction medium was replaced with a maintenance cocktail (5 µg mL^−1 insulin, 1 nM triiodo‐L‐thyronine, and 1 µM rosiglitazone) until 6 to 8 days after the induction of differentiation.
# Brown fat was homogenized with lysis buffer, ultrasonographically treated on ice at 300 W (on for 3 s, off for 7 s) for 2 min, and then centrifuged at 4 °C at 12 000 × g for 10 min. […] All protocols were followed in accordance with the manufacturer's guidelines.
# BAT from wild‐type mice = assay: H&E staining and Ucp1 immunostaining of BAT; type: in vivo, wild‐type C57BL/6J mice; conditions: GPCBi 5.5 mg kg^−1 orthotopically into BAT
# Experimental: The mouse experiments were approved by the Institutional Animal Care and Use Committee of the Institute of Model Animals of Tongji Hospital, Huazhong University of Science and Technology, and were performed in compliance with all relevant ethical regulations (approval number: TJH‐202110044). Unless otherwise noted, the mice were housed in a pathogen‐free and climate‐controlled environment (22–25 °C, 40‐60% humidity) and were given free access to food and water on a 12 h light/dark cycle. Wild‐type C57BL/6J mice were obtained from Beijing Huafukang Bioscience Co., Ltd. (Beijing, China). Gabpa ^flox/flox , Adipoq^Cre , and Ucp1^Cre mice were purchased from Cyagen Biosciences, Inc. (Guangzhou, China). For GPCBi treatment, wild‐type mice were orthotopically injected GPCBi (FITC‐[…]; 5.5 mg kg^−1) or scramble peptide (FITC‐[…]; 5.5 mg kg^−1) into the BAT at room temperature for one week. […] For cold exposure, the mice were caged individually and exposed to a temperature of 10 or 4 °C. The mice were euthanized by CO2 inhalation. For studies with specific diets, five‐week‐old male Gabpα ^Adipo KI mice and their respective littermate control mice were fed a HFD (D12492, Research Diets; 60 kcal% fat, 20 kcal% carbohydrates, and 20 kcal% protein; Medicience Ltd., Jiangsu, China) at ambient temperature. The food was changed every week. Body weight was measured every week, and tissue weights were measured at the time of euthanasia.
# For haematoxylin and eosin (H&E) staining, adipose tissues and the liver were fixed in 4% paraformaldehyde overnight at 4 °C and then dehydrated in 70% ethanol. The tissues were subsequently embedded in paraffin, sectioned at a thickness of 5 µm, and stained with H&E or immunostained with a Ucp1 antibody (Abcam, UK, Cat# ab234430, 1:500 dilution) following the standard protocol. For Oil Red O staining, frozen liver sections were stained with Oil Red O solution for 10 min and then counterstained with haematoxylin for 20 s. Images of the tissue samples were captured via an Olympus BX53 Orthomicroscope. […]
smiles,measurement,setting,value
CC[C@H](C)[C@H](NC(=O)[C@H](CCCNC(=N)N)NC(=O)[C@H](CS)NC(=O)[C@H](CC(N)=O)NC(=O)[C@H](CC(C)C)NC(=O)[C@H](CC(=O)O)NC(=O)[C@H](CS)NC(=O)[C@H](CCCNC(=N)N)NC(=O)[C@H](CC(=O)O)NC(=O)[C@H](Cc1ccc(O)cc1)NC(=O)[C@@H](NC(=O)[C@H](CC(C)C)NC(=O)[C@H](CCCCN)NC(=O)[C@H](CC(C)C)NC(=O)[C@H](CCCNC(=N)N)NC(=O)[C@@H](NC(=O)[C@@H](NC(=O)[C@H](CCCNC(=N)N)NC(=O)[C@H](CCCNC(=N)N)NC(=O)[C@H](CCCNC(=N)N)NC(=O)[C@H](CCCNC(=N)N)NC(=O)[C@H](CCCNC(=N)N)NC(=O)[C@H](CCC(N)=O)NC(=O)[C@H](CCCNC(=N)N)NC(=O)[C@H](CCCNC(=N)N)NC(=O)[C@H](CCCCN)NC(=O)[C@H](CCCCN)NC(=O)[C@H](CCCNC(=N)N)NC(=O)CNC(=O)[C@H](Cc1ccc(O)cc1)NC(=S)Nc1ccc2c(c1)C(=O)OC21c2ccc(O)cc2Oc2cc(O)ccc21)[C@@H](C)O)[C@@H](C)CC)[C@@H](C)CC)C(=O)N[C@@H](Cc1c[nH]cn1)C(=O)N[C@@H](CCCCN)C(=O)N[C@@H](CCCCN)C(=O)N[C@@H](CO)C(=O)N[C@@H](CCCNC(=N)N)C(=O)N[C@@H](CC(N)=O)C(=O)N[C@@H](CCCCN)C(=O)O [GPCBi] ({FITC}-YGRKKRRQRRRRRTIRLKLIYDRCDLNCRIHKKSRNK-OH; N-terminus and C-terminus assumed),expression of glycolytic and thermogenic genes,"[1]; first 2 days of adipogenic differentiation (Figure 4e,f), mRNA n = 3",decreased the expression of glycolytic and thermogenic genes
same,expression of adipogenic gene Adipoq,"[1]; first 2 days of adipogenic differentiation (Figure 4e,f), n = 3",did not change
same,expression of Ldh and Ucp1 in brown adipocytes,[1]; first 2 days of adipogenic differentiation (Figure 5m),lower expression
same,"regulatory gene expression of the futile lipid cycle, differentiated iBAT‐SVF cells",[1]; first 2 days of adipogenic differentiation (Figure S5c),substantially impaired
same,thermogenic gene ucp1 in GPCBi‐treated brown adipocytes,"[1]; first 2 days of adipogenic differentiation, without Enoblock (Figure 5p)",downregulated
same,intracellular lactate levels in brown adipocytes,[2]; first 2 days of adipogenic differentiation (Figure 5l),decreased
same,lactate level in GPCBi‐treated brown adipocytes,"[2]; first 2 days of adipogenic differentiation, versus scramble peptide, without Enoblock (Figure 5o)",reduced
same,lipid accumulation in BAT,"BAT from wild‐type mice; H&E, 7 days (Figure 4i,j)",increased lipid accumulation
same,Ucp1 abundance in BAT,"BAT from wild‐type mice; Ucp1 immunostaining, 7 days (Figure 4i,k)",decreased Ucp1 abundance
